Reference: ChEMBL document CHEMBL4831545, “Hormesis Effect of Berberine against Klebsiella pneumoniae Is Mediated by Up-Regulation of the Efflux Pump KmrA” (J Nat Prod, 2021)
Activity calls are given as the source filed them. No cut-off for these calls is given here.

Assays:
[1] = test system: Klebsiella pneumoniae; experiment: Hormesis activity against Klebsiella pneumonia assessed as promotion of bacterial growth by measuring increase in final OD600 at 3 ug/ml measured for 24 hrs in presence of 2 ug/ml tetracycline by OD600 based analysis; format: organism-based; details: in vivo, at 3 µg/mL
[2] = test system: Enterobacter cloacae; experiment: Hormesis activity against overnight compound-treated Enterobacter cloacae assessed as increase in antibiotic MIC by measuring cefotaxime MIC at 3 ug/ml incubated for 12 hrs by OD600 based analysis (reference value: 1.5625 ug/ml); format: ADME, organism-based; details: in vivo, dose 3 µg/ml
[3] = test system: Enterobacter cloacae; experiment: Hormesis activity against Enterobacter cloacae assessed as increase in antibiotic MIC by measuring cefotaxime MIC at 3 ug/ml incubated for 12 hrs by OD600 based analysis (reference value: 1.5625 ug/ml); format: ADME, organism-based; details: in vivo, dose 3 µg/ml
[4] = test system: Klebsiella pneumoniae; experiment: Hormesis activity against Klebsiella pneumoniae assessed as increase in antibiotic MIC by measuring azithromycin MIC at 3 ug/ml incubated for 12 hrs by OD600 based analysis (reference value: 1.5625 ug/ml); format: ADME, organism-based; details: in vivo, dose 3 µg/ml
[5] = test system: Acinetobacter baumannii; experiment: Hormesis activity against overnight-compound treated Acinetobacter baumannii assessed as increase in antibiotic MIC by measuring ciprofloxacin MIC at 3 ug/ml incubated for 12 hrs by OD600 based analysis (reference value: 0.3125 ug/ml); format: ADME, organism-based; details: in vivo, dose 3 µg/ml
[6] = test system: Klebsiella pneumoniae; experiment: Hormesis activity against Klebsiella pneumoniae assessed as increase in antibiotic MIC by measuring chloramphenicol MIC at 3 ug/ml incubated for 12 hrs by OD600 based analysis (reference value: 6.25 ug/ml); format: ADME, organism-based; details: in vivo, dose 3 µg/ml
[7] = test system: Klebsiella pneumoniae; experiment: Hormesis activity against Klebsiella pneumoniae deficient in KmrA gene expression assessed as increase in antibiotic MIC by measuring cefotaxime MIC at 3 ug/ml incubated for 12 hrs by OD600 based analysis (reference value: 0.39625 ug/ml); format: ADME, organism-based; details: in vivo, dose 3 µg/ml
[8] = test system: Acinetobacter baumannii; experiment: Hormesis activity against Acinetobacter baumannii assessed as promotion of bacterial growth at 3 to 50 ug/ml measured for 24 hrs in presence of 80 to 120 ug/ml tetracycline by OD600 based analysis; format: organism-based; details: in vivo, dose 3-50 µg/ml
[9] = test system: Acinetobacter baumannii; experiment: Hormesis activity against Acinetobacter baumannii assessed as increase in antibiotic MIC by measuring rifampicin MIC at 3 ug/ml incubated for 12 hrs by OD600 based analysis (reference value: 1.5625 ug/ml); format: ADME, organism-based; details: in vivo, dose 3 µg/ml
[10] = test system: Klebsiella pneumoniae; experiment: Hormesis activity against overnight compound-treated Klebsiella pneumoniae assessed as increase in antibiotic MIC by measuring ciprofloxacin MIC at 3 ug/ml incubated for 12 hrs by OD600 based analysis (reference value: 0.0390625 ug/ml); format: ADME, organism-based; details: in vivo, dose 3 µg/ml
[11] = test system: Enterobacter cloacae; experiment: Hormesis activity against Enterobacter cloacae assessed as increase in antibiotic MIC by measuring rifampicin MIC at 3 ug/ml incubated for 12 hrs by OD600 based analysis (reference value: 25 ug/ml); format: ADME, organism-based; details: in vivo, dose 3 µg/ml
[12] = test system: Klebsiella pneumoniae; experiment: Hormesis activity against Klebsiella pneumonia assessed as inhibition of bacterial growth at 12 ug/ml measured after 24 hrs by OD600 based analysis; format: functional, organism-based; details: dose 12.0 µg/ml
[13] = test system: Acinetobacter baumannii; experiment: Hormesis activity against overnight-compound treated Acinetobacter baumannii assessed as increase in antibiotic MIC by measuring streptomycin MIC at 3 ug/ml incubated for 12 hrs by OD600 based analysis (reference value: 400 ug/ml); format: ADME, organism-based; details: in vivo, dose 3 µg/ml
[14] = test system: Klebsiella pneumoniae; experiment: Hormesis activity against overnight compound-treated Klebsiella pneumoniae assessed as increase in antibiotic MIC by measuring rifampicin MIC at 3 ug/ml incubated for 12 hrs by OD600 based analysis (reference value: 25 ug/ml); format: ADME, organism-based; details: in vivo, dose 3 µg/ml
[15] = test system: Klebsiella pneumoniae; experiment: Hormesis activity against overnight compound-treated Klebsiella pneumoniae deficient in KmrA gene expression assessed as increase in antibiotic MIC by measuring ampicillin MIC at 3 ug/ml incubated for 12 hrs by OD600 based analysis (reference value: 12.5 ug/ml); format: ADME, organism-based; details: in vivo, dose 3 µg/ml
[16] = test system: Enterobacter cloacae; experiment: Hormesis activity against overnight compound-treated Enterobacter cloacae assessed as increase in antibiotic MIC by measuring ciprofloxacin MIC at 3 ug/ml incubated for 12 hrs by OD600 based analysis (reference value: 0.0390625 ug/ml); format: ADME, organism-based; details: in vivo, dose 3 µg/ml
[17] = test system: Klebsiella pneumoniae; experiment: Hormesis activity against overnight compound-treated Klebsiella pneumoniae deficient in KmrA gene expression assessed as increase in antibiotic MIC by measuring cefotaxime MIC at 3 ug/ml incubated for 12 hrs by OD600 based analysis (reference value: 0.39625 ug/ml); format: ADME, organism-based; details: in vivo, dose 3 µg/ml
[18] = test system: Klebsiella pneumoniae; experiment: Hormesis activity against Klebsiella pneumonia assessed as inhibition of bacterial growth at 25 to 50 ug/ml measured for 24 hrs in presence of 2 ug/ml tetracycline by OD600 based analysis; format: functional, organism-based; details: dose 25-50 µg/ml
[19] = test system: Klebsiella pneumoniae; experiment: Hormesis activity against overnight compound-treated Klebsiella pneumoniae deficient in KmrA gene expression assessed as increase in antibiotic MIC by measuring azithromycin MIC at 3 ug/ml incubated for 12 hrs by OD600 based analysis (reference value: 0.78125 ug/ml); format: ADME, organism-based; details: in vivo, dose 3 µg/ml
[20] = test system: Klebsiella pneumoniae; experiment: Hormesis activity against overnight compound-treated Klebsiella pneumoniae assessed as increase in antibiotic MIC by measuring tetracycline MIC at 3 ug/ml incubated for 12 hrs by OD600 based analysis (reference value: 6 ug/ml); format: ADME, organism-based; details: in vivo, dose 3 µg/ml
[21] = test system: Klebsiella pneumoniae; experiment: Hormesis activity against Klebsiella pneumoniae assessed as increase in antibiotic MIC by measuring atreonamMIC at 3 ug/ml incubated for 12 hrs by OD600 based analysis (reference value: 1.5625 ug/ml); format: ADME, organism-based; details: in vivo, dose 3 µg/ml
[22] = test system: Klebsiella pneumoniae; experiment: Hormesis activity against overnight compound-treated Klebsiella pneumoniae assessed as increase in antibiotic MIC by measuring hygromycinMIC at 3 ug/ml incubated for 12 hrs by OD600 based analysis (reference value: 12.5 ug/ml); format: ADME, organism-based; details: in vivo, dose 3 µg/ml
[23] = test system: Acinetobacter baumannii; experiment: Hormesis activity against overnight-compound treated Acinetobacter baumannii assessed as increase in antibiotic MIC by measuring atreonamMIC at 3 ug/ml incubated for 12 hrs by OD600 based analysis (reference value: 6.25 ug/ml); format: ADME, organism-based; details: in vivo, dose 3 µg/ml
[24] = test system: Enterobacter cloacae; experiment: Hormesis activity against overnight compound-treated Enterobacter cloacae assessed as increase in antibiotic MIC by measuring azithromycin MIC at 3 ug/ml incubated for 12 hrs by OD600 based analysis (reference value: 6.25 ug/ml); format: ADME, organism-based; details: in vivo, dose 3 µg/ml

`COc1ccc2cc3[n+](cc2c1OC)CCc1cc2c(cc1-3)OCO2` [BERBERINE] was tested. Which Activity [1] did it give?
Its Activity is 23%.

What about the MIC [2] of the same compound?
Its MIC is 3.125 µg/mL.

And the MIC [3]?
Its MIC is 3.125 µg/mL.

What about the MIC [4] of the same compound?
The MIC was 3.125 µg/mL.

What about the MIC [5] of the same compound?
Its MIC is 0.625 µg/mL.

What about the MIC [6] of the same compound?
Its MIC is 6.25 µg/mL.

And the MIC [7]?
Its MIC is 0.3962 µg/mL.

And the Activity [8]?
The Activity was “Toxic”.

What about the MIC [9] of the same compound?
Its MIC is 3.125 µg/mL.

What about the MIC [10] of the same compound?
The MIC was 0.1562 µg/mL.

And the MIC [11]?
Its MIC is 25 µg/mL.

And the Activity [12]?
Its Activity is “Active”.

And the MIC [13]?
The MIC was 400 µg/mL.

And the MIC [14]?
The MIC was 50 µg/mL.

And the MIC [15]?
Its MIC is 12.5 µg/mL.

What about the MIC [16] of the same compound?
The MIC was 0.1562 µg/mL.

What about the MIC [17] of the same compound?
Its MIC is 0.3962 µg/mL.

And the Activity [18]?
The Activity was “Active”.

What about the MIC [19] of the same compound?
Its MIC is 1.5625 µg/mL.

And the MIC [20]?
The MIC was 12 µg/mL.

What about the MIC [21] of the same compound?
The MIC was 1.5625 µg/mL.

And the MIC [22]?
The MIC was 12.5 µg/mL.

And the MIC [23]?
Its MIC is 6.25 µg/mL.

And the MIC [24]?
The MIC was 6.25 µg/mL.
